Calls of active or inactive are those of the source.
Experiments:
[1] = cells; assay type: functional, cell-based
[2] = cells; assay type: functional, cell-based; remark: listed apart in the source
[3] = Shn3 3'UTR reporter inhibitors, dose response, cell-based, Clone20 osteoblasts, firefly luciferase, cherry-picked (AID 624132); assay type: functional;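 note: firefly luciferase luminescence from reporter carrying the Shn3 3'UTR in osteoblasts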
[4] = HepG2 cell cytotoxicity, dose response, cytotoxicity control for Shn3 inhibitor project, CellTiter-Glo, cherry-picked (AID 624134); assay type: functional, cell-based
[5] = target: T1, Corticotropin-releasing factor receptor 2/Corticotropin-releasing factor-binding protein (Homo sapiens, UniProt P24387+Q13324); assay: activators of CRF receptor 2 with binding protein – uHTS hits, confirmation (AID 602473); assay type: functional; conditions: read-out: EC50_Mean
T1 sequence (Q13324 whole entry): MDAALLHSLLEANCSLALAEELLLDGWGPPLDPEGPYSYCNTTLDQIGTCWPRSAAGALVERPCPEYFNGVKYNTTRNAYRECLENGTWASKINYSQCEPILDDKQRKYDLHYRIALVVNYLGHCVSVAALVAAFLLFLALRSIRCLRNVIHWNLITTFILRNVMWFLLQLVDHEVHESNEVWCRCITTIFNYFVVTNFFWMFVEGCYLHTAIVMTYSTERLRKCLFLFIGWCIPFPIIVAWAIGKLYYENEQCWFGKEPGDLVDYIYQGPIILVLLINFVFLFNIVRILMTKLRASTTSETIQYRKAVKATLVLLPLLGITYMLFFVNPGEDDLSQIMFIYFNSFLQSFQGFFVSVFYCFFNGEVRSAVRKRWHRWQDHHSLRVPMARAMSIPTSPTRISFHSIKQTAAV
T1 sequence (P24387 whole entry): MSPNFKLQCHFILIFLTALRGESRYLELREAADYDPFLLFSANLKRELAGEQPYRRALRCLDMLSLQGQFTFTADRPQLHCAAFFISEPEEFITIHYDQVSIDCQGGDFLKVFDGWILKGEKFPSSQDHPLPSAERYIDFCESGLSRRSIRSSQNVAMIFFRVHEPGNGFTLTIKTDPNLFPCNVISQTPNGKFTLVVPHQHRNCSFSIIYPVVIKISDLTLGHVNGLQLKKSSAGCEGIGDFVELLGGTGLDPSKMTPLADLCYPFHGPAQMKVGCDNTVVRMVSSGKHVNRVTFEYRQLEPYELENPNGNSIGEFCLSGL

[6] = control 3'UTR Renilla luciferase suppression, dose response, counter-screen for Shn3 inhibitor project, cell-based, Clone20-Shn3RL, cherry-picked (AID 624133); assay type: functional
[7] = microbe, parasite or virus in culture; assay type: functional; conditions: Mycobacterium tuberculosis
[8] = target: T2, Cytochrome P450 1A2 (Homo sapiens, UniProt P05177);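 note: PubChem cytochrome P450 panel assay, CYP1A2 panel member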
T2 sequence (P05177 whole entry): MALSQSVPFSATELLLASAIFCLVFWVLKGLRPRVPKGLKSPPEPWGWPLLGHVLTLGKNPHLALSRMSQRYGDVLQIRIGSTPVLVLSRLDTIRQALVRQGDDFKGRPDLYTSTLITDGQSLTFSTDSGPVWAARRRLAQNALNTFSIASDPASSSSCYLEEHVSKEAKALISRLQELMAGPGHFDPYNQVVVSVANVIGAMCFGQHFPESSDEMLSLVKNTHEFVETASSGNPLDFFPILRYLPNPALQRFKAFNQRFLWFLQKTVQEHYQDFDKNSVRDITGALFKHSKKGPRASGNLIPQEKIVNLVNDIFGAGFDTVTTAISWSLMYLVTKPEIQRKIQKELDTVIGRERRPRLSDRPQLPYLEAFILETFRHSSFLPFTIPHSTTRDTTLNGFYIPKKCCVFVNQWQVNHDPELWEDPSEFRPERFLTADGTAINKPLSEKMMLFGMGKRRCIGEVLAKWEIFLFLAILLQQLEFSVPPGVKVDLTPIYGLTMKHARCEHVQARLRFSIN

[9] = target: Cytochrome P450 3A4 (Homo sapiens, UniProt P08684);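 note: CYP3A4 tested as one member of a cytochrome P450 panel screen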
Cytochrome P450 3A4, sequence (P08684 whole entry): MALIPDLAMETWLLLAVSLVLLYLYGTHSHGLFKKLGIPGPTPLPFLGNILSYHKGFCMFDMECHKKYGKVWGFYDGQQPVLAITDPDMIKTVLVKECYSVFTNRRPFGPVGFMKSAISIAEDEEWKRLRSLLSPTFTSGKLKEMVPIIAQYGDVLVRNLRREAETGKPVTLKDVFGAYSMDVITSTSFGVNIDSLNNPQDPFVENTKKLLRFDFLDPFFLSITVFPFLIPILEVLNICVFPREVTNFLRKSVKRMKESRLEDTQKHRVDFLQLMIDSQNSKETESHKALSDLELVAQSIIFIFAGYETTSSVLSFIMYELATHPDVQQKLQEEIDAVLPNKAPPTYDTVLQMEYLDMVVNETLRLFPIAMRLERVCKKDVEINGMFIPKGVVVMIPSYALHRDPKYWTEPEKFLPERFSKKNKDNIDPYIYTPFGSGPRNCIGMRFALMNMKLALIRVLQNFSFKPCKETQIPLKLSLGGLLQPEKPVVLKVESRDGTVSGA

[10] = inhibitors of intracellular T. cruzi replication, confirmation, NIH3T3 host cells, beta-gal luminescence (AID 2044); assay type: functional, cell-based;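 note: intracellular parasites grown in NIH/3T3 mouse fibroblasts as host cells; luminescent beta-galactosidase reporter signal from transgenic T. cruzi replicating inside host cells; inhibitors lower the luminescence signal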
[11] = cytotoxicity toward NIH3T3 fibroblasts, dose response, counter-screen, cell-based, ATP luminescence, mouse fibroblasts (AID 2010); assay type: functional;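 note: cells exposed to compound for about 90 hours before reading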
[12] = target: T3, Heat shock factor protein 1 (Mus musculus, UniProt P38532); assay: HSF1 potentiators in luciferase reporter cells, confirmation, cell-based, NIH3T3, luminescence, dose retest (AID 435004); assay type: functional;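 note: stress induced by proteasome inhibitor MG132 added 30 min after compound; luciferase reporter driven by HSF1 response element in NIH3T3 cells; actives raise luminescence as potentiators of the MG132 stress response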
T3 sequence (P38532 whole entry): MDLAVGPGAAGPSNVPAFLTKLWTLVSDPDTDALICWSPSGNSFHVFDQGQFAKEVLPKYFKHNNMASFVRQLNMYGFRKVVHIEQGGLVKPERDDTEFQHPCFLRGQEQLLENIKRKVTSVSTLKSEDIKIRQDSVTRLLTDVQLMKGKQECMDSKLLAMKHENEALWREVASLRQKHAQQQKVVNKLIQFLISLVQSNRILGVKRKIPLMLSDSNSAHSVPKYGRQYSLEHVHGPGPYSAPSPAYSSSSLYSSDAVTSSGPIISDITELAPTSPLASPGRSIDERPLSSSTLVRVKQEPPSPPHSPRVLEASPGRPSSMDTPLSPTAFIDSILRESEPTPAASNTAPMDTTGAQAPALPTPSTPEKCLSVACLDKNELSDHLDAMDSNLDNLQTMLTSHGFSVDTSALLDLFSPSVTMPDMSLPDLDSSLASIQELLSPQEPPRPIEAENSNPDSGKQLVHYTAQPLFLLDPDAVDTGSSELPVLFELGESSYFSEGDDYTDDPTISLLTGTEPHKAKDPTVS

[13] = target: Cytochrome P450 2C19 (Homo sapiens, UniProt P33261); assay: Cytochrome panel assay with activity outcomes. Panel member name: p450-cyp2c19 Compounds with AC50 equal or less than 10 uM are considered active; assay type: functional
Cytochrome P450 2C19, sequence (P33261 whole entry): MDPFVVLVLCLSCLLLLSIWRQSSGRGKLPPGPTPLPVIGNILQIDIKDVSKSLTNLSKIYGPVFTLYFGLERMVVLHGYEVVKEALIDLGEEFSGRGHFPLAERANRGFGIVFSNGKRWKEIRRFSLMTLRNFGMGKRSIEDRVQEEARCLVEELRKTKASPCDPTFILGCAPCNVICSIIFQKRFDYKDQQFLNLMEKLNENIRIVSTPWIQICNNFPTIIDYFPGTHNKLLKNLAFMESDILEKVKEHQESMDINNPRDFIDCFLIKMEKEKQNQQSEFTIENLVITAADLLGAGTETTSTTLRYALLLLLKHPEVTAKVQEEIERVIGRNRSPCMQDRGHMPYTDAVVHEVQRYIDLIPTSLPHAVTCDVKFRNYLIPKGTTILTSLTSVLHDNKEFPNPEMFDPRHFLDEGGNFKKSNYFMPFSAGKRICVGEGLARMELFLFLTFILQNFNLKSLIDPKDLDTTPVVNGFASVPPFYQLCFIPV

[14] = target: T3, Heat shock factor protein 1; assay: inhibition of MG132-induced HSE-luciferase signal, confirmation, cell-based, NIH3T3, luminescence, dose retest (AID 2382); assay type: functional;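 note: NIH3T3 fibroblasts with HSF1-driven luciferase reporter stressed by proteasome inhibitor MG132; luminescence from HSF1-driven luciferase expression after 8 hours of MG132 stress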
[15] = target: Cytochrome P450 2C9 (Homo sapiens, UniProt P11712)
Cytochrome P450 2C9, sequence (P11712 whole entry): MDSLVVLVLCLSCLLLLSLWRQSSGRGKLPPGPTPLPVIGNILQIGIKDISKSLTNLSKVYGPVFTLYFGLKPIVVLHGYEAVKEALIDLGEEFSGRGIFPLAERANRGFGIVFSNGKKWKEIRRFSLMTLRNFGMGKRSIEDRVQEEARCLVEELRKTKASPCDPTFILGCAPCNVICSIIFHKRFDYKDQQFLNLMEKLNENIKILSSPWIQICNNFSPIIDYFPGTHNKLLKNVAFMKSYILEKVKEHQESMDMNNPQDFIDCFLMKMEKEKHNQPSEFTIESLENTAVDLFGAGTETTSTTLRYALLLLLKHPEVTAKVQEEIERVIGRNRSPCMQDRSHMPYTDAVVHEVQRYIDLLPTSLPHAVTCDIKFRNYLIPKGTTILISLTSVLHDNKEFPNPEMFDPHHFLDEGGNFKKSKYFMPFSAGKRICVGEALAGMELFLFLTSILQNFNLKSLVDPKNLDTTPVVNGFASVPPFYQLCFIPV

[16] = system: Streptococcus sp. 'group A'; assay: growth inhibition of control SK(-) GAS strain, dose response, counter-screen for streptokinase expression inhibitor project, luminescence, kanamycin, BacTiterGlo, confirmation (AID 1900); assay type: functional, organism-based
[17] = system: Streptococcus; assay: Group A Streptococcus viability loss, dose response, counter-screen for streptokinase expression inhibitor project, luminescence, BacTiterGlo (AID 1915); assay type: functional, organism-based;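 note: potency for reduction of bacterial viability or growth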
[18] = Luminescence Cell-Based Dose Retest to Confirm Inhibitors of Cancer Stem Cells. [Related pubchem assays (depositor defined):AID2717, AID2721]; assay type: functional; conditions: Homo sapiens
[19] = growth suppression of PTEN-null colon cells, dose response, cell-based, HCT116 PTEN knockout (AID 1047); assay type: functional;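 note: HCT116 colon tumor cells with PTEN knocked out; cells exposed to compound for 60 hours before readout; potency for loss of cell viability measured by luminescence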
[20] = growth suppression of beta-catenin-knockout colon cells, dose response, cell-based, HCT116, human colon tumor (AID 1045); assay type: functional;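 note: HCT116 colon tumor cells with beta catenin knocked out; cells exposed to compound for 60 hours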
[21] = target: T4, Streptokinase A (Streptococcus pyogenes serotype M1, UniProt P10520); assay: S. pyogenes streptokinase expression inhibitors, potency, dose response, plasminogen activation absorbance, OD405 (AID 1914); assay type: functional, Streptococcus pyogenes M1 GAS;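 note: secreted streptokinase activity via plasminogen activation per viability signal from cell pellet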
T4 sequence (P10520 whole entry): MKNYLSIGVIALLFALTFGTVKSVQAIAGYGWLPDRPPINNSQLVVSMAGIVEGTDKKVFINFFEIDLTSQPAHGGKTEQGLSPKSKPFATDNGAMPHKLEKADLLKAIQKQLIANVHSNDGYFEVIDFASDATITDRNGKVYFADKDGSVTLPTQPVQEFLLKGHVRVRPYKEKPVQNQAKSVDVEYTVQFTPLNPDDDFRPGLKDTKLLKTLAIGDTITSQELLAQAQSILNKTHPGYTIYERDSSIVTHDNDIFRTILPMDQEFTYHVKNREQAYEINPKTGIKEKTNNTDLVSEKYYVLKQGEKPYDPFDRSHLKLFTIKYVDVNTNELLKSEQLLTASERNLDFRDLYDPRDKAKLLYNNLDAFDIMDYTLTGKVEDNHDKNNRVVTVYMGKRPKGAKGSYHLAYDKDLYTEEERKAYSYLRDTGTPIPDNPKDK

[22] = target: Luciferin 4-monooxygenase (Photinus pyralis, UniProt P08659); assay: firefly luciferase enzyme inhibitors, dose response, biochemical, luminescence (AID 1891)
Luciferin 4-monooxygenase, sequence (P08659 whole entry): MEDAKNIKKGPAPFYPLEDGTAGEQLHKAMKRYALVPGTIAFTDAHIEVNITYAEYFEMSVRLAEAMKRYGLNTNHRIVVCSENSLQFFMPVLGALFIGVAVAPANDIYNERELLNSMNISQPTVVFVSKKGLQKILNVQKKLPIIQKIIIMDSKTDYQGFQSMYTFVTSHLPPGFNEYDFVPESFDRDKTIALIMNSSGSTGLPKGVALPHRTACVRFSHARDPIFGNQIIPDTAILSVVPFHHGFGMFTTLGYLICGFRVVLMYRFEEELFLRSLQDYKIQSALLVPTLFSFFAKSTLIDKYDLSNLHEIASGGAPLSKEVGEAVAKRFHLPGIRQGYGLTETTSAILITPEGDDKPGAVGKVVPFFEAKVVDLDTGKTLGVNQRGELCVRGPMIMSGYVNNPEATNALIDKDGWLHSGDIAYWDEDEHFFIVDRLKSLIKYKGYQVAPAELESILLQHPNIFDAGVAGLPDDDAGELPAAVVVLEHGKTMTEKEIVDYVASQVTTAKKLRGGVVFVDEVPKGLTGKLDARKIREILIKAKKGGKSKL

[23] = Luminescence Cell-Based Dose Confirmation HTS to Identify Inhibitors of Platelet Dense Granule Release. [Related pubchem assays: 1663 (Primary HTS), 1678 (Summary of Project)]; assay type: functional
[24] = target: FAD-linked sulfhydryl oxidase ALR (Homo sapiens, UniProt P55789); assay: inhibitors of human ALR sulfhydryl oxidase, dose response, biochemical, H2O2 detection, luminescence, cherry-pick (AID 493248)
FAD-linked sulfhydryl oxidase ALR, sequence (P55789 whole entry): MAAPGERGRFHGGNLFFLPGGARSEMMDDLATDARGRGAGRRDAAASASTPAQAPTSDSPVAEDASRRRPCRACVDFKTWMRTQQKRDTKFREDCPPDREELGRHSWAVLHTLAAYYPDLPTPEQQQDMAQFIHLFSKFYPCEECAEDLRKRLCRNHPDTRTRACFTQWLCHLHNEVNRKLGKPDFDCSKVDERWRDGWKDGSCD

For `O=C(NC1CCCC1)c1cc(-c2cccs2)on1`, the EC50 [1] was 108 µM (active) and the EC50 [2] was 52.2 µM (active).

For `CC(C)Cc1ccc(C(C)C(=O)Nc2ccccc2O)cc1` (stereo unspecified), the AC50 [3] was 1.89 µM (active), the AC50 [4] was 6.63 µM (active) and the EC50 [5] was 5.7 µM (active). For the same compound, the AC50 [6] was 4.26 µM (active).

With `Cc1sc2ncnc(Oc3ccc(-n4ccnc4)cc3)c2c1C` the CC50 [7] was > 40 µM (active).

With `Cc1cc(O)c(C(C)C)cc1NC(=O)Nc1cccc2ccccc12` the AC50 [8] was 0.794 µM (inconclusive) and the AC50 [9] was 3.16 µM (inconclusive).

With `COc1ccc(NC(=O)c2[nH]c(C)c(C(C)=O)c2C)cc1S(=O)(=O)Nc1ccc(Br)cc1` the EC50 [10] was 1.12 µM (active), the EC50 [11] was > 60 µM (not active) and the EC50 [12] was > 260 µM (inactive).

In the case of `COc1cc(OC)cc(C(=O)NCC(=O)OC2CCOC2=O)c1` (stereo unspecified), the AC50 [13] is reported as “inconclusive” and the AC50 [8] is reported as 0.0316 µM (inconclusive).

In the case of `CCOC(=O)C1(CCOc2ccccc2)CCN(Cc2cccc(-n3cccn3)c2)CC1`, the EC50 [14] is reported as > 195 µM (not active) and the CC50 [7] is reported as > 40 µM (active).

In the case of `Cc1nn(C)c(Cl)c1S(=O)(=O)N[C@@H](c1ccccc1)[C@]1(C)C[C@H]1[C@@H](C)C(=O)Nc1ccc2ccccc2c1`, the AC50 [8] is reported as 5.01 µM (inconclusive) and the AC50 [15] is reported as 6.31 µM (inconclusive).

With `FC(F)(F)c1cccc(NC(S)=NCc2ccccn2)c1` the EC50 [12] was > 260 µM (inactive).

With `Cc1ccccc1-c1cncnc1NC1CCNCC1` the AC50 [8] was 0.00794 µM (inconclusive).

In the case of `COc1ccc(NS(=O)(=O)c2ccc3[nH]c(COc4cccc5ccccc45)nc3c2)cc1`, the EC50 [16] is reported as 6.33 µM (active), the CC50 [7] is reported as 32.6 µM (active) and the EC50 [17] is reported as 91 µM (active). The AC50 [18] was 3.87 µM (active).

For `Cc1ccc(NC(=O)C2CCN(S(=O)(=O)c3ccc4c(c3)NC(=O)C(C)S4)CC2)cc1C` (stereo unspecified), the AC50 [3] was 2.61 µM (active), the AC50 [4] was 68.3 µM (active) and the AC50 [6] was 6.43 µM (active).

For `O=[N+]([O-])c1cccc(/C=C/c2ccc3cccc(O)c3n2)c1`, the EC50 [16] was 3.36 µM (active), the EC50 [1] was > 350 µM (not active) and the EC50 [2] was 7.51 µM (active). The EC50 [17] was 7.37 µM (active).

For `CC(C)C(=O)C(C)(C)CCc1ccccn1`, the AC50 [8] was 2.51 µM (inconclusive).

In the case of `N#CCCn1cc(/C=C2\NC(=S)N(c3ccccc3)C2=O)c(-c2ccc(-c3ccccc3)cc2)n1`, the CC50 [7] is reported as 38.2 µM (active).

With `CC(C)Cc1nnc(NC(=O)CCC(=O)N2CCC3(CC2)OCCO3)s1` the EC50 [1] was > 350 µM (not active) and the EC50 [2] was > 350 µM (not active).

With `Nc1ncncc1-c1ccc([N+](=O)[O-])cc1` the AC50 ([13]; read-out: AC50) was 10 µM (inconclusive), the AC50 [8] was 28.2 µM (inconclusive) and the AC50 [9] was 12.6 µM (inconclusive).

In the case of `CC1CC(C)(C)N(C(=O)NC2CCCCC2)c2ccccc21` (stereo unspecified), the EC50 [12] is reported as > 260 µM (inactive).

With `Cc1ccc(S(=O)(=O)c2cccc(S(=O)(=O)N3CCCC3)c2)cc1S(=O)(=O)N1CCCC1` the EC50 [19] was 35.7 µM (active) and the EC50 [20] was 28.3 µM (active).

With `Cc1cc(C)n2cc(COc3ccc4ccccc4c3)nc2n1` the EC50 [12] was > 260 µM (inconclusive).

With `COc1ccc2c(c1)N(CC[C@H]1CCCCN1C)c1ccccc1S2` the AC50 [8] was 1.26 µM (inconclusive).

With `COc1ccc(-n2c(C)csc2=S)cc1` the EC50 [1] was > 350 µM (not active) and the EC50 [2] was > 350 µM (not active).

For `Cc1cccc(NC(=O)C2CC(=O)N=C(Nc3nc4ccccc4s3)N2)c1` (stereo unspecified), the EC50 [1] was > 350 µM (not active) and the EC50 [2] was > 350 µM (not active).

With `COC(=O)N1CCC[C@@]2(CCN(C(=O)Nc3ccccc3)C2)C1` the AC50 [8] was 12.6 µM (inconclusive).

For `CCNC(=S)N/N=C/c1ccc(-c2ccccc2)o1`, the EC50 [12] was > 260 µM (inactive).

In the case of `COc1cccc(C2C3=C(N=c4s/c(=C\c5cccc(O)c5)c(=O)n42)c2ccccc2CC3)c1OC` (stereo unspecified), the EC50 [16] is reported as 20.8 µM (active), the EC50 [21] is reported as 6.31 µM (active) and the CC50 [7] is reported as 32.5 µM (active). The EC50 [19] was 13.9 µM (active), the EC50 [20] was 15.3 µM (active) and the EC50 [17] was > 150 µM (not active). The AC50 [18] was 4.06 µM (active).

In the case of `BrC(/C=C\c1ccccc1)=N/Nc1nc(N2CCOCC2)nc(N2CCOCC2)n1`, the EC50 [12] is reported as > 260 µM (inactive).

In the case of `COc1ccc(/C=N/NC(=O)c2ccncc2)cc1CN1CCN(c2ccc(F)cc2)CC1`, the EC50 [22] is reported as > 112 µM (not active), the EC50 [23] is reported as > 112 µM (not active) and the AC50 [24] is reported as 7.46 µM (active).

In the case of `O=C1CC(=C(c2ccccc2)c2ccccc2)C(=O)N1CCCCN1CCN(c2ccccc2)CC1`, the CC50 [7] is reported as > 40 µM (active).

Source: ChEMBL document CHEMBL1201862, “PubChem BioAssay data set” (2004)
